Converted amounts (≈) assume the structure as drawn.
Assays:
E. faecium 1798 [1] = assay: microbe, parasite or virus in culture; type: cell-based, Enterococcus faecium; conditions: for Minimum inhibitory concentration: 1798, 24 h
Procedure: (§1) Overnight cultures of the enterococcal isolates were diluted in physiological saline (0.9% NaCl) to reach a turbidity of 0.5 McFarland units (Sensititre® nephelometer and the Sensititre® McFarland Standard). Bacterial suspensions were adjusted to 5 × 10^5 CFU/mL in MHB II or BHI broth containing two-fold dilutions of peptidomimetics or conventional antibiotics in a final volume of 100 µL. The plates were incubated for 24 h at 37 °C without shaking. […] All experiments were performed in three biological replicates.

E. faecium 2961 [2] = assay: microbe, parasite or virus in culture; type: cell-based, Enterococcus faecium; conditions: for Minimum inhibitory concentration: 2961, 24 h
Procedure: as §1

E. faecium 3978 = assay: microbe, parasite or virus in culture; type: cell-based, Enterococcus faecium; conditions: for Minimum inhibitory concentration: 3978, 24 h
Procedure: as §1

E. faecium D344R = assay: microbe, parasite or virus in culture; type: cell-based, Enterococcus faecium; conditions: 24 h; for Minimum inhibitory concentration: E. faecium D344R, human clinical isolate
Procedure: as §1

E. faecium ATCC 19434 [3] = assay: microbe, parasite or virus in culture; type: cell-based, Enterococcus faecium; conditions: for Minimum inhibitory concentration: ATCC 19434, 24 h
Procedure: as §1, with “replicates. […]” for “replicates.”

E. faecalis ATCC 29212 [4] = assay: microbe, parasite or virus in culture; type: cell-based, Enterococcus faecalis; conditions: for Minimum inhibitory concentration: ATCC 29212, 24 h
Procedure: as §1, with “replicates. […]” for “replicates.”

E. faecalis 38262 = assay: microbe, parasite or virus in culture; type: cell-based, Enterococcus faecalis; conditions: for Minimum inhibitory concentration: 38262, 24 h
Procedure: as §1

E. faecalis 39002 = assay: microbe, parasite or virus in culture; type: cell-based, Enterococcus faecalis; conditions: for Minimum inhibitory concentration: 39002, 24 h
Procedure: as §1

[5] = Hydrophobicity by analytical RP-HPLC (% MeCN at peak elution); type: physicochemical
Procedure: Water was filtered by using an Evoqua LaboStar PRO TWF Ultra Pure Water System prior to use in high-performance liquid chromatography (HPLC). The retention time for each peptidomimetic was determined by analytical HPLC using a Phenomenex Luna C18(2) HST column (100 mm × 3 mm; particle size: 2.5 μm; pore size: 100 Å) on a Shimadzu Prominence and Shimadzu Nexera system using an aqueous MeCN gradient with 0.1% trifluoroacetic acid (TFA) added (eluent A: 5:95 MeCN–H2O + 0.1% TFA; eluent B: 95:5 MeCN–H2O + 0.1% TFA); a flow rate of 0.5 mL/min was used. For the elution of peptidomimetics, a linear gradient of 0% to 60% B over 10 min was used with UV detection at λ = 220 nm. The percentage MeCN at peak elution was calculated from the retention time (tR) by using the following formula:%MeCN = [0.95 × 0.6 × tR/10 + 0.05 × (1 − 0.6 × tR/10)] × 100%

Hemolytic activity = type: cell-based, human; conditions: human, human red blood cells (washed, 1% suspension), 37 °C, 1% red blood cell suspension
Procedure: (§2) A suspension of hRBCs (Single-donor human red blood cells—washed; catalogue No. IPLA-W3 from Innovative researchTM) was washed three times with PBS buffer and centrifuged for 5 min at 2500 rpm. A two-fold serial dilution of compounds in PBS buffer was prepared. Plates (conical-bottomed 96-well plates) with 3 replicate wells per dilution, containing 1% red blood cell suspension, were prepared and dosed with the test compound to achieve a final concentration of 400 μg/mL in a total volume of 100 μL. The plates were incubated (37 °C) for 60 min with mild agitation, and then the cells were pelleted by centrifugation at 1500 rpm for 5 min. Then, the supernatants (50 μL) were transferred to a fresh 96-well plate, and then the concentration of hemoglobin was detected by measuring the OD at 405 nm. The OD of cells incubated with 1% SDS achieved 100% hemolysis, while the OD of cells incubated with PBS buffer achieved 0% hemolysis. The concentration tested was 400 μg/mL (only average values are stated in Table 3). The percent hemolysis was calculated by using the formula:Hemolysis(%) = 100 × [(Asample − Aneg.control)/(Apos. control − Aneg.control)]

[6] = system: HepG2 cell line ATCC HB-8065; assay: Effect on HepG2 cell viability (MTT assay); type: cell-based, human; conditions: 48 h
Procedure: The effect of peptidomimetics on mammalian cell viability was determined on the HepG2 cell line ATCC HB-8065. In brief, HepG2 cells were seeded into flat-bottom 96-well plates at a concentration of 5000 cells per well. The cells were incubated for 24 h in a humidified incubator (5% CO2, 37 °C). Subsequently, the medium was removed, and the cells were incubated for 48 h in a humidified incubator (5% CO2, 37 °C) with peptidomimetics in serial dilutions. An MTT assay was then performed; in brief, after incubation with the test compounds, the culture medium was removed and fresh medium with 0.2 mg/mL MTT was then added into each well. After incubation (3 h, 37 °C, 5% CO2), the medium with MTT was removed, and 200 μL dimethyl sulfoxide was added at once to each sample. The absorbance of MTT was measured using the spectrophotometer TECAN Infinite M1000 at 540 nm. The relative viability was calculated by using the formula:ODtreated cells × 100/ODcontrol cells
The IC50 values were calculated using the program Graph Pad Prism 5.0. For all compounds, the test range was 10–1280 μg/mL.

E. faecium isolates = type: cell-based, Enterococcus faecium; conditions: 24 h
Procedure: as §1

E. faecalis isolates = type: cell-based, Enterococcus faecalis; conditions: 24 h
Procedure: as §1

human red blood cells = assay: Hemolytic activity; type: cell-based; conditions: 60 min, 37 °C, 1% red blood cell suspension
Procedure: as §2

E. faecium 1798 [7] = assay: Broth checkerboard assay with conventional antibiotics; type: cell-based, Enterococcus faecium; conditions: antibiotic alone (-); BHI broth
Procedure: (§3) The strain culture preparation and final volume were the same as in the MIC assay. […] The plates were incubated for 24 h at 37 °C without shaking. […] All experiments were performed in two biological replicates.
(§4) To evaluate the effect of the combinations, the fractional inhibitory concentration index (FICI) was calculated for each combination according to:ΣFIC = FICA + FICB = (CA/MICA) + (CB/MICB)
(§5) The drug interaction was scored as follows: synergy—FICI ≤ 0.5; no interaction—FICI > 0.5–4; antagonism—FICI > 4 [40].

E. faecium 2961 [8] = assay: as above; type: cell-based, Enterococcus faecium; conditions: antibiotic alone (-); BHI broth
Procedure: as §3, §4, §5

E. faecium ATCC 19434 [9] = assay: as above; type: cell-based, Enterococcus faecium; conditions: antibiotic alone (-); BHI broth
Procedure: as §3, §4, §5

E. faecalis ATCC 29212 [10] = assay: as above; type: cell-based, Enterococcus faecalis; conditions: antibiotic alone (-); BHI broth
Procedure: as §3, §4, §5

Structure (SMILES)	Minimum inhibitory concentration (E. faecium 1798 [1]) [µg/mL]	Minimum inhibitory concentration (E. faecium 2961 [2]) [µg/mL]	Minimum inhibitory concentration (E. faecium 3978) [µg/mL]	Minimum inhibitory concentration (E. faecium D344R) [µg/mL]	Minimum inhibitory concentration (E. faecium ATCC 19434 [3]) [µg/mL]	Minimum inhibitory concentration (E. faecalis ATCC 29212 [4]) [µg/mL]	Minimum inhibitory concentration (E. faecalis 38262) [µg/mL]	Minimum inhibitory concentration (E. faecalis 39002) [µg/mL]	Hydrophobicity, Luna C18(2) HST (0–60% B; 10 min), retention converted into % MeCN [5] [% MeCN]	hemolysis at 60 min, 400 µg/mL (Hemolytic activity) [%]	HepG2 IC50 [6] [µg/mL]	MIC (range or typical value) against E. faecium (E. faecium isolates) [µg/mL]	also measured
C[C@@H](c1ccccc1)N(CCC(=O)N[C@@H](CCCCN)C(=O)N(CCC(=O)N[C@@H](CCCCNC(=N)N)C(=O)N(CCC(=O)N[C@@H](CCCCN)C(=O)N(CCC(=O)N[C@@H](CCCCNC(=N)N)C(=O)N(CCC(=O)N[C@@H](CCCCN)C(=O)N(CCC(N)=O)[C@@H](C)c1ccccc1)[C@@H](C)c1ccccc1)[C@@H](C)c1ccccc1)[C@@H](C)c1ccccc1)[C@@H](C)c1ccccc1)C(=O)[C@H](CCCCNC(=N)N)NC(=O)C=Cc1ccccc1 [Compound 6, Cinn-[hArg-βNspe-Lys-βNspe]3-NH2]	4 (≈ 1.91 µM)	4 (≈ 1.91 µM)	4 (≈ 1.91 µM)	4 (≈ 1.91 µM)	8 (≈ 3.82 µM)	16 (≈ 7.64 µM)	16 (≈ 7.64 µM)	16 (≈ 7.64 µM)	45.9	15.7	42	4 to 8	MIC (range) against E. faecalis (E. faecalis isolates): 16 µg/mL (≈ 7.64 µM)
C[C@@H](c1ccccc1)N(CCC(N)=O)C(=O)[C@H](CCCCN)NC(=O)CCN(C(=O)[C@H](CCCCNC(=N)N)NC(=O)CCN(C(=O)[C@H](CCCCN)NC(=O)CCN(C(=O)[C@H](CCCCNC(=N)N)NC(=O)CCN(C(=O)[C@H](CCCCN)NC(=O)CCN(C(=O)[C@H](CCCCNC(=N)N)NC(=O)CCN(C(=O)[C@H](CCCCN)NC(=O)CCN(C(=O)[C@@H](N)CCCCNC(=N)N)[C@@H](C)c1ccccc1)[C@@H](C)c1ccccc1)[C@@H](C)c1ccccc1)[C@@H](C)c1ccccc1)[C@@H](C)c1ccccc1)[C@@H](C)c1ccccc1)[C@@H](C)c1ccccc1 [Compound 4, H-[hArg-βNspe-Lys-βNspe]4-NH2]	4 (≈ 1.53 µM)	4 (≈ 1.53 µM)	4 to 8	4 (≈ 1.53 µM)	8 (≈ 3.06 µM)	>32	16 (≈ 6.12 µM)	32 (≈ 12.2 µM)	43.6	2.6	42	4 to 8	
CC(=O)N[C@@H](CCCCNC(=N)N)C(=O)N(CCC(=O)N[C@@H](CCCCNC(=N)N)C(=O)N(CCC(=O)N[C@@H](CCCCNC(=N)N)C(=O)N(CCC(=O)N[C@@H](CCCCNC(=N)N)C(=O)N(CCC(=O)N[C@@H](CCCCNC(=N)N)C(=O)N(CCC(=O)N[C@@H](CCCCNC(=N)N)C(=O)N(CCC(=O)N[C@@H](CCCCNC(=N)N)C(=O)N(CCC(=O)N[C@@H](CCCCNC(=N)N)C(=O)N(CCC(N)=O)Cc1ccccc1)Cc1ccccc1)Cc1ccccc1)Cc1ccccc1)Cc1ccccc1)Cc1ccccc1)Cc1ccccc1)Cc1ccccc1 [Compound 1, Ac-[hArg-βNPhe]8-NH2]	2 (≈ 0.738 µM)	2 (≈ 0.738 µM)	4 (≈ 1.48 µM)	4 (≈ 1.48 µM)	8 (≈ 2.95 µM)		16 (≈ 5.9 µM)	32 (≈ 11.8 µM)	41.8	~6	9	2 to 8	Hemolysis (at 400 µg/mL) (human red blood cells): 6.1%
CN[C@H](CC(C)C)C(=O)N[C@H]1C(=O)N[C@@H](CC(N)=O)C(=O)N[C@H]2C(=O)N[C@H]3C(=O)N[C@H](C(=O)N[C@H](C(=O)O)c4cc(O)cc(O)c4-c4cc3ccc4O)[C@H](O)c3ccc(c(Cl)c3)Oc3cc2cc(c3O[C@@H]2O[C@H](CO)[C@@H](O)[C@H](O)[C@H]2O[C@H]2C[C@](C)(N)[C@H](O)[C@H](C)O2)Oc2ccc(cc2Cl)[C@H]1O [Vancomycin, vancomycin]													MIC (E. faecium 1798 [1]; Enterococcus faecium, 1798, 24 h, read-out: Minimum inhibitory concentration): > 256 µg/mL; MIC (E. faecium 2961 [2]; Enterococcus faecium, 2961, 24 h, read-out: Minimum inhibitory concentration): > 256 µg/mL; MIC (E. faecium 3978; Enterococcus faecium, 3978, 24 h, read-out: Minimum inhibitory concentration): 16 µg/mL (≈ 11 µM); MIC (E. faecium D344R; Enterococcus faecium, D344R, read-out: Minimum inhibitory concentration): 2 µg/mL (≈ 1.38 µM); MIC (E. faecium ATCC 19434 [3]; Enterococcus faecium, ATCC19434, 24 h, read-out: Minimum inhibitory concentration): 1 to 2 µg/mL (≈ 0.69 to 1.38 µM); MIC (E. faecalis ATCC 29212 [4]; Enterococcus faecalis, ATCC29212, 24 h, read-out: Minimum inhibitory concentration): 2 to 4 µg/mL (≈ 1.38 to 2.76 µM); MIC (E. faecalis 38262; Enterococcus faecalis, 38262, 24 h, read-out: Minimum inhibitory concentration): 1 µg/mL (≈ 0.69 µM); MIC (E. faecalis 39002; Enterococcus faecalis, 39002, 24 h, read-out: Minimum inhibitory concentration): 1 µg/mL (≈ 0.69 µM); MIC of antibiotic (E. faecium 1798 [7]): > 256 µg/mL; MIC of antibiotic (E. faecium 2961 [8]): > 256 µg/mL; MIC of antibiotic (E. faecium ATCC 19434 [9]): 1 to 2 µg/mL; MIC of antibiotic (E. faecalis ATCC 29212 [10]): 2 to 4 µg/mL
